According to US8937084B2, “Nitrogen containing morphinan derivatives and the use thereof” (Purdue Pharma L.P., priority 2012, dated 2015):

Tests used:
μ-opioid receptor [1] = molecular target: T1, μ-opioid receptor (Homo sapiens (Human), UniProt P35372); experiment: μ-opioid receptor radioligand dose-displacement binding assay ([3H]-diprenorphine)
Procedure: μ-Opioid Receptor Binding Assay Procedures: Radioligand dose-displacement binding assays for μ-opioid receptors used 0.3 nM [^3H]-diprenorphine (Perkin Elmer, Shelton, Conn.), with […] membrane protein/well in a final volume of 500 μl binding buffer (10 mM MgCl2, 1 mM EDTA, 5% DMSO, 50 mM HEPES, pH 7.4). Reactions were carried out in the absence or presence of increasing concentrations of unlabeled naloxone. All reactions were conducted in 96-deep well polypropylene plates for 2 hours at room temperature. Binding reactions were terminated by rapid filtration onto 96-well Unifilter GF/C filter plates (Perkin Elmer, Shelton, Conn.), presoaked in 0.5% polyethylenimine using a 96-well tissue harvester (Perkin Elmer, Shelton, Conn.) followed by performing three filtration washes with 500 μl of ice-cold binding buffer. Filter plates were subsequently dried at 50° C. for 2-3 hours. BetaScint scintillation cocktail (Perkin Elmer, Shelton, Conn.) was added (50 μl/well), and plates were counted using a Packard Top-Count for 1 min/well. The data were analyzed using the one-site competition curve fitting functions in GraphPad PRISM™ v. 3.0 or higher (San Diego, Calif.), or an in-house function for one-site competition curve-fitting.
In TABLE 1, binding affinity of certain Compounds of the Invention to the μ-, δ- and κ-opioid receptors was determined as described above.

δ opioid receptor = δ opioid receptor (Homo sapiens (Human), UniProt P41143); experiment: δ-opioid receptor [35S]GTPγS functional assay, HEK-293 or CHO cells; type: biochemical; settings: for EC50: GTPγS; for Emax: relative to met-enkephalin
Sequence of δ opioid receptor (P41143 whole entry, looked up): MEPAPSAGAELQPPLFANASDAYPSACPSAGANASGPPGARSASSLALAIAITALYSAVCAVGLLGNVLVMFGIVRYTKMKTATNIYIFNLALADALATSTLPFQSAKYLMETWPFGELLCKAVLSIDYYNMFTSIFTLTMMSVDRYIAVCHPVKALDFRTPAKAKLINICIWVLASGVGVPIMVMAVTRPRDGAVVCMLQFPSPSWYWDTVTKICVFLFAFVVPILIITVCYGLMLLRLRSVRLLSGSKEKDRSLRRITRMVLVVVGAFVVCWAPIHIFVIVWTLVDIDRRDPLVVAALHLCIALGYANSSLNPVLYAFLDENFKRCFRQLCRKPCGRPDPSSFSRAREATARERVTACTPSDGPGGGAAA
Procedure: δ-Opioid Receptor Functional Assay Procedures: Functional [^35S]GTPγS binding assays were conducted as follows. 5 opioid receptor membrane solution was prepared by sequentially adding final concentrations of […] δ membrane protein (Perkin Elmer, Shelton, Conn.), 10 μg/mL saponin, 3 µM GDP and 0.20 nM [^35S]GTPγS to binding buffer (100 mM NaCl, 10 mM MgCl2, 20 mM HEPES, pH 7.4) on ice. The prepared membrane solution ([…]) was transferred to 96-shallow well polypropylene plates containing 10 μl of 20× concentrated stock solutions of agonist prepared in DMSO. Plates were incubated for 30 min at a temperature of about 25° C. with shaking. Reactions were terminated by rapid filtration onto 96-well Unifilter GF/B filter plates (Perkin Elmer, Shelton, Conn.) using a 96-well tissue harvester (Packard) and followed by three filtration washes with 200 μl ice-cold binding buffer (10 mM NaH2PO4, 10 mM Na2HPO4, pH 7.4). Filter plates were subsequently dried at 50° C. for 1-2 hours. Fifty μl/well scintillation cocktail (Perkin Elmer, Shelton, Conn.) was added and plates were counted in a Packard Top-count for 1 min/well.
δ-Oploid Receptor Functional Data: δ GTP EC50 is the concentration of a compound providing 50% of the maximal response for the compound at a δ receptor.
δ GTP Emax (%) is the maximal effect elicited by a compound relative to the effect elicited by met-enkephalin.
In TABLE 2, activity response of certain Compounds of the Invention to the μ-, δ- and κ-opioid receptors was determined as described above for functional assays using HEK-293 or CHO cells.

μ-opioid receptor [2] = molecular target: T1, μ-opioid receptor; experiment: μ-opioid receptor [35S]GTPγS functional assay, U-2 OS cells; type: biochemical; settings: for EC50: GTPγS; for Emax: relative to DAMGO
Procedure: μ-Opioid Receptor Functional Assay Procedures: [^35S]GTPγS functional assays were conducted using freshly thawed μ-receptor membranes prepared in-house from a cell line expressing recombinant μ opioid receptor in a HEK-293, CHO or U-2 OS cell background, or purchased from a commercial source (Perkin Elmer, Shelton, Conn.; or DiscovRx, Fremont, Calif.). Assay reactions were prepared by sequentially adding the following reagents to binding buffer (100 mM NaCl, 10 mM MgCl2, 20 mM HEPES, pH 7.4) on ice (final concentrations indicated): membrane protein (0.026 mg/mL), saponin ([…]), GDP ([…]) and [^35S]GTPγS (0.20 nM; Perkin Elmer, Shelton, Conn.). The prepared membrane solution (190 μl/well) was transferred to 96-shallow well polypropylene plates containing 10 μl of 20× concentrated stock solutions of the agonist [D-Ala^2, N-methyl-Phe^4 Gly-ol^5]-enkephalin (DAMGO) prepared in dimethyl sulfoxide (DMSO). Plates were incubated for 30 min at about 25° C. with shaking. Reactions were terminated by rapid filtration onto 96-well Unifilter GF/B filter plates (Perkin Elmer, Shelton, Conn.) using a 96-well tissue harvester (Perkin Elmer, Shelton, Conn.) followed by three filtration washes with 200 μl of ice-cold wash buffer (10 mM NaH2PO4, 10 mM Na2HPO4, pH 7.4). Filter plates were subsequently dried at 50° C. for 2-3 hours. BetaScint scintillation cocktail (Perkin Elmer, Shelton, Conn.) was added (50 μl/well) and plates were counted using a Packard Top-Count for 1 min/well. Data were analyzed using the sigmoidal dose-response curve fitting functions in GraphPad PRISM v. 3.0, or an in-house function for non-linear, sigmoidal dose-response curve-fitting.
μ-Opioid Receptor Functional Data: μ GTP EC50 is the concentration of a compound providing 50% of the maximal response for the compound at a μ-opioid receptor.
μ GTP Emax (%) is the maximal effect elicited by a compound relative to the effect elicited by DAMGO, a standard μ agonist. Generally, the μ GTP Emax (%) value measures the efficacy of a compound to treat or prevent pain or other Conditions.
The following TABLE 3 provides results on the activity response of certain Compounds of the Invention at the μ- and κ-opioid receptors determined as described above using U-2 OS cells.

| Structure (SMILES) | Ki (μ-opioid receptor [1]) | EC50 (δ opioid receptor) | Emax (δ opioid receptor) | EC50 (μ-opioid receptor [2]) | Emax (μ-opioid receptor [2]) |
| --- | --- | --- | --- | --- | --- |
| O=C1C[C@]23CCN(CC4CC4)[C@H](Cc4ccc(O)cc42)[C@@H]3CN1Cc1ccc(O)cc1 [Compound 5, (4aS,5R,10bS)-13-(cyclopropylmethyl)-9-hydroxy-3-(4-hydroxybenzyl)-4,4-a,5,6-tetrahydro-1H-5,10b-(epiminoethano)benzo[f]isoquinolin-2(3H)-one] | 12.8 ± 1.55 nM | 4.39 ± 0.93 nM | 71 ± 6.08% | – | – |
| Oc1ccc2c(c1)[C@@]13CCNC[C@H]1[C@@H](C2)N(CC1CC1)CC3 [Compound 13, (4aS,5R,10bR)-13-(cyclopropylmethyl)-2,3,4,4a,5,6-hexahydro-1H-5,10b-(epiminoethano)benzo[f]isoquinolin-9-ol] | 50.4 ± 16.7 nM | 36.5 ± 11.1 nM | 83.3 ± 1.45% | – | – |
| NC(=O)CN1C[C@H]2[C@H]3Cc4ccc(O)cc4[C@@]2(CCN3CC2CC2)CC1=O [Compound 4, 2-((4aS,5R,10bS)— 13-(cyclopropylmethyl)-9-hydroxy-2-oxo-4,4-a,5,6-tetrahydro-1H-5,10b-(epiminoethano)benzo[f]isoquinolin-3(2H)-yl)acetamide] | 24.4 ± 7.61 nM | 9.06 ± 0.94 nM | 109 ± 3.28% | 7.05 ± 0.17 nM | 39 ± 3.51% |
| O=C(O)CN1C[C@H]2[C@H]3Cc4ccc(O)cc4[C@@]2(CCN3CC2CC2)CC1=O [Compound 8, 2-((4aS,5R,10bS)-13-(cyclopropylmethyl)-9-hydroxy-2-oxo-4,4-a,5,6-tetrahydro-1H-5,10b-(epiminoethano)benzo[f]isoquinolin-3(2H)-yl)acetic acid] | 21.2 ± 6.62 nM | 2.41 ± 0.29 nM | 110 ± 3.11% | – | – |
| O=C1C[C@]23CCN(CC4CC4)[C@H](Cc4ccc(O)cc42)[C@@H]3CN1 [Compound 7, (4aS,5R,10bS)-13-(cyclopropylmethyl)-9-hydroxy-4,4-a,5,6-tetrahydro-1H-5,10b-(epiminoethano)benzo[f]isoquinolin-2(3H)-one] | 5.61 ± 0.44 nM | 8.7 ± 1.25 nM | 85.7 ± 6.89% | 3.43 ± 0.43 nM | 40.7 ± 3.18% |
